Bridge positions count the residues as written; N and C are the ends. Square brackets hold non-standard residues; d marks the D form. Peptide text beside a SMILES is read from it.
Tests used:
GC-C Receptor = biological target: T1, GC-C Receptor (Homo sapiens, UniProt P25092); test: cGMP stimulation assay in T84 cells in the presence of zaprinast (Example 2); format: cell-based
T1 construct: endogenous in cells; host or cells: T84 human colon carcinoma cells
Protocol: Confluent monolayers of T84 cells in 24-well plates were pre-incubated with indicated amounts of SP-333 in the presence of zaprinast for 30 minutes at 37° C. Subsequently, the reaction was terminated by 3% perchloric acid and neutralized with 0.5N NaOH. Intracellular cGMP levels were determined in lysates using a ELISA kit (Cayman Chemical). All samples were analyzed in duplicates. Total protein was quantitated using Pierce BCA protein assay (Thermo Fisher Scientific).

LPS stimulated T84 cells = test: Cytokines expression analysis (ELISA) in LPS stimulated T84 cells; format: cell-based, human; conditions: LPS 10 μg/ml 4 h, then SP-333 16 h
Protocol: To evaluate the effect of different concentrations of SP-333 on secretion of cytokines (IL-8 and TNF), 12-well plates seeded with 10^5 cells/well were used. At 85-90% confluence, cells were washed with DPBS and treated with or without LPS (10 μg/ml) for 4 h, followed by washing with phosphate buffered saline (PBS). SP-333 at 0, 0.01, 0.1, 1 and 10 μM) together with 500 μM of Zaprinast was added to the treated cells and incubated further for 16 h. The levels of IL-8 and TNF were quantified using human IL-8 and TNF ELISA development kits (Peprotech, Rocky Hill, N.J.) Each ELISA was performed in triplicate with cell-free supernatants from two independent experiments. The protein concentration of each well was assessed by Bio-Rad protein dye detection kit.

DSS-induced colitis = DSS-induced colitis in BDF-1 mice; format: in vivo, mouse
Protocol: To evaluate the efficacy of plecanatide in DSS induced colitis model, 48 BDF-1 mice were divided into 8 treatment groups (6 mice/group). One group was not exposed to DSS (untreated control) and groups 2-8 were treated with 5% DSS in the drinking water on day 0. Plecanatide or SP-333 solutions formulated in 0.1M phosphate buffer (pH 7) was administered by oral gavage, once a day at 0.005, 0.05, 0.5, 2.5 and 5 mg/kg, from study day −1 (i.e. prior to initiation of DSS treatment) through day 6 for SP-333 or day 7 for plecanatide. DSS treatment was initiated on day 0 for groups 2-8 until the end of the study. Sulfasalazine (80 mg/kg) or 5-ASA (100 mg/kg) was used as positive control and was administered daily. Mice were sacrificed on day 7. The large intestine was removed and weighed. Distal section of the large intestine was collected and fixed as described above.
Disease activity index (DAI) was calculated by scoring in-life parameters starting from day −1 until the end of the study. Once daily, all mice were weighed and assessed for stool consistency, and the presence of overt blood in the stool or around the anus essentially similar to that reported earlier. Colitis severity was assessed by histopathological analyses of H&E stained tissue sections (Hegazi et al., 2005; Dave et al., 2009) employing the following criteria: (score 0) normal appearing crypts; (score 1) abnormal crypt pathology without ulceration; (score 2) depleted crypts with ulceration; (score 3) 20-50% depleted crypts and increased ulceration; (score 4) >50% depleted crypts with substantial ulceration and (score 5) totally ulcerated/inflamed colon with no crypts remaining. All slides were scored in a blinded manner. Colitis severity in TCRα−/− model was scored as previously described^25. All slides were scored in a blinded manner. Disease activity index (DAI) was calculated by assessing body weight, stool consistency, and the presence of overt blood in stools or around the anus, essentially similar to that reported earlier (Hamamoto et al., 1999).

[1] = format: in vitro ADME
Protocol: (§1) Plecanatide and SP-333 were incubated in simulated intestinal fluid (SIF) for 6-24 h. Inactivated SIF was used as a control. Following the treatment, samples were analyzed by HPLC by cGMP production in T84 cells. […] The active metabolite, SP-338 was characterized by MS and MS/MS and identified to be formed via removal of carboxyl terminal leucine possibly due to cleavage by carboxypeptidases.

[2] = format: in vitro ADME; remark: listed apart in the source
Protocol: The potency of test peptides to stimulate cGMP synthesis in T84 cells was assayed by a published procedure (Shailubhai et al. 2000). Briefly, confluent monolayers of T-84 cells in 24-well plates were washed twice with 250 μl of DMEM containing 50 mM HEPES (pH 7.4), pre-incubated at 37° C. for 10 min with 250 μl of DMEM containing 50 mM HEPES (pH 7.4) and 1 mM isobutylmethylxanthine (IBMX), followed by incubation with test peptide for 30 min. The medium was aspirated, and the reaction was terminated by the addition of 3% perchloric acid. Following centrifugation, and neutralization with 0.1 N NaOH, the resulting supernatant was used directly for measurements of intracellular cGMP using an ELISA kit (Caymen Chemical, Ann Arbor, Mich.). Results are expressed as pmol of cGMP/mg of protein in the cell extracts.
as §1

T84 cells = test: Quantitative RT-PCR for transcripts in T84 cells; format: cell-based, human
[3] = SP-333 0.005 to 5 mg/kg oral daily, vs DSS alone or DSS plus vehicle

T1 sequence (P25092 24-1073): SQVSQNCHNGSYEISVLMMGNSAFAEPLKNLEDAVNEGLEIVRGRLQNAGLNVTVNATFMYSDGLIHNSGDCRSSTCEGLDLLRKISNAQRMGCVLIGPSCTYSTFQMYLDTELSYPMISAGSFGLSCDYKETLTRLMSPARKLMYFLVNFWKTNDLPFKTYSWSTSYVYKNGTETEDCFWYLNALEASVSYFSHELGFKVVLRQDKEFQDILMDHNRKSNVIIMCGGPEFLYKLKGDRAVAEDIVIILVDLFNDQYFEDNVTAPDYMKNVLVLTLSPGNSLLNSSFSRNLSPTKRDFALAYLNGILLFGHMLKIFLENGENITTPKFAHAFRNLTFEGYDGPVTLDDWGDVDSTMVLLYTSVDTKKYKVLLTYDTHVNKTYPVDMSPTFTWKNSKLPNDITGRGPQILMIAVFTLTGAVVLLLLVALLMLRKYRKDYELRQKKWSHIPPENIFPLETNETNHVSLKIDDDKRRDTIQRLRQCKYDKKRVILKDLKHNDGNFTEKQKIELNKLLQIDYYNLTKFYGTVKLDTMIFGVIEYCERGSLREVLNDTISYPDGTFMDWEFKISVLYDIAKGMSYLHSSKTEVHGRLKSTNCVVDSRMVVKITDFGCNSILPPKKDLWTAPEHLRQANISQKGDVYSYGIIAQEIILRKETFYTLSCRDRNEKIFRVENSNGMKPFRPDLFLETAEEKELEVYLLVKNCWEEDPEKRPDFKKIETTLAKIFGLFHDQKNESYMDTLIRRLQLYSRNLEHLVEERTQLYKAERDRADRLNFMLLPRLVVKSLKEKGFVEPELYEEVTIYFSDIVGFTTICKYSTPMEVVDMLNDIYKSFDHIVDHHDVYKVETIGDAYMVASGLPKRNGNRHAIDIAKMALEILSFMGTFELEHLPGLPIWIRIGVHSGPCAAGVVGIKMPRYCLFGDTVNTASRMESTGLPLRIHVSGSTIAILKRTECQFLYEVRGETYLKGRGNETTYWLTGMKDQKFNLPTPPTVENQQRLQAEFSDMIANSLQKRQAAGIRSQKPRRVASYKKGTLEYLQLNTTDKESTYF

Structure (SMILES): CC(C)C[C@@H]1NC(=O)[C@H](CCC(=O)O)NC(=O)[C@@H](NC(=O)[C@H](CCC(=O)O)NC(=O)[C@H](CC(=O)O)NC(=O)[C@H](N)CC(N)=O)CSSC[C@@H]2NC(=O)[C@H](C)NC(=O)[C@H](C(C)C)NC(=O)[C@H](CC(N)=O)NC(=O)[C@H](C(C)C)NC(=O)[C@H](CSSC[C@@H](C(=O)N[C@H](CC(C)C)C(=O)O)NC(=O)CNC(=O)[C@H]([C@@H](C)O)NC2=O)NC1=O [SP-333, dAsn^1-Asp^2-Glu^3-Cys^4-Glu^5-Leu^6-Cys^7-Val^8-Asn^9-Val^10-Ala^11-Cys^12-Thr^13-Gly^14-Cys^15-dLeu^16] (H-[dN]DECELCVNVACTGC[dL]-OH; disulfide 4-12, 7-15; N-terminus and C-terminus assumed)
- concentration at which cGMP synthesis approached a plateau (GC-C Receptor; FIG. 14): 1 µM
- cGMP production (GC-C Receptor; FIG. 15): enhanced
- LPS stimulated production of IL-8 (LPS stimulated T84 cells): concentration dependent reversal
- LPS stimulated production of TNF (LPS stimulated T84 cells): concentration dependent reversal
- histopathology score (DSS-induced colitis; DSS+SP-333 0.005 mg/kg, representative image FIG. 10C (DSS alone 4)): 1
- histopathology score (DSS-induced colitis; DSS+SP-333 0.05 mg/kg, representative image FIG. 10D): 2
- histopathology score (DSS-induced colitis; DSS+SP-333 0.5 mg/kg, representative image FIG. 10E): 2
- amelioration of colitis compared with 5-ASA (DSS-induced colitis; SP-333 0.005 mg/kg oral): as effective as 5-ASA (100 mg/kg)
- DAI (DSS-induced colitis; SP-333 0.05 mg/kg oral, vs DSS vehicle control, p=0.041): significant reduction
- mean DAI scores (DSS-induced colitis; [3]): lower
- mean scores of colitis severity (DSS-induced colitis; [3]): lower
- histological evaluation of colon tissues (crypts) (DSS-induced colitis; SP-333 treatment groups): minimal loss of crypts with very low distortions in crypt morphology
- stability in simulated gastric and intestinal fluids [1]: stable
- biological activity lost [2]: ~20%
- biological activity retained [2]: retains most of its biological activity
- transcripts of cell division cycle 25a (putative c-Myc target gene) (T84 cells): reduced
- transcripts of cyclin D1 (putative c-Myc target gene) (T84 cells): reduced
- transcripts of p53 (putative c-Myc target gene) (T84 cells): reduced
- Expression of Protein Kinase G I and II Transcripts (T84 cells; FIG. 15): enhanced
- decrease in Cyclin D1 expression (T84 cells; FIG. 17): 58%
- decrease in Survivin expression (T84 cells; FIG. 17): 50%
- decrease in c-Myc expression (T84 cells; FIG. 17): 92%
- expression of β-Catenin (T84 cells; FIG. 17): no effect
- decrease in c-Src expression (T84 cells; compared to untreated cells, FIG. 16): 52%

From US20160235807A1, “AGONISTS OF GUANYLATE CYCLASE USEFUL FOR DOWNREGULATION OF PRO-INFLAMMATORY CYTOKINES” (SYNERGY PHARMACEUTICALS, INC., priority 2013, published 2016)
